Source: patent US20050271588A1, “Liposome targeting of matrix metalloproteinase inhibitors” (priority 2001, published 2005)
Positions of bridges follow the written chain, without caps; N, C: chain ends. Residues, ends and D or L forms follow the SMILES beside them.

Legend:
[1] = biological target: T1, MMP-2 (Homo sapiens, UniProt P08253); experiment: Casein zymography, inhibition of MMP-2; assay type: biochemical; conditions: 85 μM peptide
T1 construct: purchased Boehringer Mannheim GmbH (Germany)
T1 sequence (P08253 110-660): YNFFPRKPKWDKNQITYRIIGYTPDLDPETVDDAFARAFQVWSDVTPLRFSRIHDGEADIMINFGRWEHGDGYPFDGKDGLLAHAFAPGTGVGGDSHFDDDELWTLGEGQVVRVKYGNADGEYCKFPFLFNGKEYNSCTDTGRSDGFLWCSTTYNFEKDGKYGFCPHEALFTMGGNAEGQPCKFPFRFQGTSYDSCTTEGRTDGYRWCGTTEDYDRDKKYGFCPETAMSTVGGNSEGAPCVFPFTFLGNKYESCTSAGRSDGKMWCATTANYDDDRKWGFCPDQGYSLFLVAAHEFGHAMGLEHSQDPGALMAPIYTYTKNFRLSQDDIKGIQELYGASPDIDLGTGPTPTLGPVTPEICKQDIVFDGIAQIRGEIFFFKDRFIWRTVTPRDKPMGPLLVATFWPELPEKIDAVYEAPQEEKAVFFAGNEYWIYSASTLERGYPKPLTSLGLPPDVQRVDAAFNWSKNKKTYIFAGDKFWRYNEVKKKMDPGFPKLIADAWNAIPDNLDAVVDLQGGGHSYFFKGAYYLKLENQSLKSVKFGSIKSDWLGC
Protocol: Assay for gelatinases. Inhibition of MMP-9 and MMP-2 by the different synthetic peptides was measured using casein zymography (Halinen et al., 1996). MMP-9 was purified as described (Sorsa et al., 1997). Subsequently, MMP-2 (2.5 μg) or MMP-9 (2.5 μg) was run on a 10% SDS-PAGE containing two mg/ml casein. The gel was first washed in Triton X-100 containing buffer to remove SDS, and it was cut into five slices which were immersed into peptide (CTT, CLP, CWL or STT) containing solutions (85 μM). After incubation for 48 hrs at 37° C., the gels were stained with Coomassie blue, scanned, and the digested areas quantitated using image analysis (Global Lab Image 3.2, Data Translation Inc. and Acuity Imaging Inc., Marlboro, Mass., USA).

[2] = tested on: HT1080 fibrosarcoma cells; experiment: Uptake of liposome-encapsulated rhodamine B by HT1080 cells; assay type: cell-based, human; conditions: for Enhanced liposome uptake: HT1080
Protocol: In another series of experiments the water-soluble fluorescent marker rhodamine B was encapsulated into liposomes and its uptake by cells was measured. Samples for rhodamine B uptake were prepared by mixing 60 μl of POPC/POPE (80/20, mol/mol, one mM) liposomes containing 10 μM rhodamine B to 300 μl of DMEM medium supplemented with 10% fetal bovine serum, Glutamax I, penicillin 100 U/ml and streptomycin 0.1 mg/ml. Peptides were then added to obtain a final concentration of […]. Ten μl (10^5 cells) of medium containing the indicated cells were combined with the LUVs. After an incubation for 15 min at 37° C. or +4° C. liposomes not bound to the cells were removed from 96-well plates by rinsing three times with cold PBS. The +4° C. temperature served as a control for non-endocytotic liposome uptake by cells (Oess and Hildt, 2000). The relative amount of rhodamine B associated with the cells was determined using microplate reader with excitation at 535 nm and emission at 595 nm.
We also preincubated cells with phorbol ester (TPA) (50 nM). Preincubation times varied from 15 to 75 min. Treatment of cells by phorbol ester (TPA) increases both expression and secretion of MMP-9 (Toth et al., 1997). Results are presented as RFI=I/I0, where RFI is relative fluorescence intensity, I0 is the emission intensity for the control, 2 μM rhodamine B in LUVs without the peptides, and I is the rhodamine emission for the peptide-liposome complexes taken up by the cells. […] M-17 inhibits the binding of MMP-9 to the substrate and this inhibition is expected to be concentration dependent. […]
Cell cultures and fluorescence microscopy. […] Uptake of rhodamine B containing liposomes by the cultured cells was verified by fluorescence microscopy. An inverted fluorescence microscope (Zeiss IM 35) equipped with Nikon extra long working distance objectives (20×) and (40×) were used. […] Fluorescence images were viewed with a Peltier-cooled digital camera (C4742-95, Hamamatsu, Japan) connected to a computer and operated by software (Hipic 5.0) provided by the instrument manufacturer.

In the case of `CC(C)C[C@@H]1NC(=O)[C@H]([C@@H](C)O)NC(=O)[C@H](Cc2ccccc2)NC(=O)CNC(=O)[C@H](Cc2c[nH]c3ccccc23)NC(=O)[C@H](Cc2c[nH]cn2)NC(=O)[C@H]([C@@H](C)O)NC(=O)[C@H]([C@@H](C)O)NC(=O)[C@@H](N)CSSC[C@@H](C(=O)O)NC1=O` [CTT] (H-CTTHWGFTLC-OH; disulfide 1-10; N-terminus and C-terminus assumed), the “Inhibition of MMP-2 activity” value [1] was “approx. 70%”, the Enhanced liposome uptake ([2]; 4° C.) was “not at 4 °C” and the Enhanced liposome uptake ([2]; 37° C.) was “evident only at 37 °C”. For the same molecule, the “Rhodamine intake, fluorescence microscopy” value ([2]; HT 1080, liposomes with vs without CTT) was “enhanced”.
